PMC11062899, “De novo development of small cyclic peptides that are orally bioavailable” (Nature Chemical Biology, 2023)

Target: human α-thrombin (Homo sapiens, UniProt P00734)
Test: Sub-library screen for active and permeable cyclic peptides (PAMPA plus thrombin inhibition)
Format: biochemical
Details: crude, slopes normalized to DMSO; for Residual thrombin activity: Top sample: PAMPA acceptor well after 14 h, 5 μM donor; for Residual thrombin activity: Equilibrated sample: donor sample diluted to theoretical equilibrium (1 μM in assay)
In short: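 Acylated cyclic peptides at 5 μM in PBS pH 7.4 with 5% DMSO were run through PAMPA for 14 h at room temperature. Acceptor wells and a diluted donor sample at 3 μM, representing maximum permeability, were preincubated 10 min with human α-thrombin (6 nM stock). Z-Gly-Gly-Arg-AMC (150 μM stock) fluorescence was then read for 30 min at 25 °C, and inhibition was taken against a no-peptide control.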

Row | Compound | Residual thrombin activity: Top sample | Residual thrombin activity: Equilibrated sample
1 | COc1ccc(C[C@@H]2NC(=O)[C@@H](NC(=O)c3ccc(Cl)s3)CCSCC(=O)CSCCNC(=O)C[C@H]3CCCN3C2=O)cc1 [C2-X33-L7] | 102.7 | 99.9
2 | CN1C(=O)[C@@H](NC(=O)c2ccc(Cl)s2)CSCc2cccc(c2)CSCCNC(=O)C[C@H]2CCCN2C(=O)[C@@H]1Cc1ccccc1 [C1-X32-L5] | 98.6 | 96.6
3 | O=C1CSCCNC(=O)C[C@H]2CCCN2C(=O)[C@H](Cc2ccccc2)NC(=O)[C@@H](NC(=O)c2ccc(Cl)s2)CCSC1 [C2-X5-L7] | 95.7 | 44.2
4 | COc1ccc(C[C@@H]2NC(=O)[C@@H](NC(=O)c3ccc(Cl)s3)CSCC(=O)CSCCNC(=O)C[C@H]3CCCN3C2=O)cc1 [C1-X33-L7] | 97.9 | 101.4
5 | CN1C(=O)[C@@H](NC(=O)c2ccc(Cl)s2)CCCSCc2ccc(cc2)CSCCNC(=O)C[C@H]2CCCN2C(=O)[C@@H]1Cc1ccccc1 [C3-X32-L3] | 101.7 | 98.3
6 | O=C1C[C@H]2CCCN2C(=O)[C@H](Cc2ccc(Cl)cc2)NC(=O)[C@@H](NC(=O)c2ccc(Cl)s2)CSCCS(=O)(=O)CCSCCN1 [C1-X34-L2] | 95.9 | 98.3
7 | O=C1C[C@H]2CCCN2C(=O)[C@H](Cc2ccc(C(F)(F)F)cc2)NC(=O)[C@@H](NC(=O)c2ccc(Cl)s2)CSCc2ccc(cc2)CSCCN1 [C1-X36-L3] | 95.8 | 94.6
8 | O=C1C[C@H]2CCCN2C(=O)[C@@H](Cc2ccccc2)NC(=O)[C@@H](NC(=O)c2ccc(Cl)s2)CCCSC/C=C/CSCCN1 [C3-X31-L4] | 100.8 | 98.3
9 | O=C1C[C@H]2CCCN2C(=O)[C@H](Cc2ccccc2)NC(=O)[C@@H](NC(=O)c2ccc(Cl)s2)CCCSCc2ccc(cc2)CSCCN1 [C3-X5-L3] | 86.8 | 50.1
10 | O=C1CSCCC[C@H](NC(=O)c2ccc(Cl)s2)C(=O)N[C@@H](Cc2ccccc2)C(=O)N2CCC[C@@H]2CC(=O)NCCSC1 [C3-X5-L7] | 73.4 | 33.5
11 | O=C1C[C@H]2CCCN2C(=O)[C@H](Cc2ccc(C(F)(F)F)cc2)NC(=O)[C@@H](NC(=O)c2ccc(Cl)s2)CCSCc2cccc(c2)CSCCN1 [C2-X36-L5] | 106.2 | 106.1
12 | O=C1C[C@H]2CCCN2C(=O)[C@@H](Cc2ccccc2)NC(=O)[C@@H](NC(=O)c2ccc(Cl)s2)CCCSCc2cccc(n2)CSCCN1 [C3-X31-L1] | 96.1 | 92.4
13 | Cc1cccc(C[C@@H]2NC(=O)[C@@H](NC(=O)c3ccc(Cl)s3)CSCC(=O)CSCCNC(=O)C[C@H]3CCCN3C2=O)c1 [C1-X37-L7] | 94.3 | 97.7
14 | CN1C(=O)[C@@H](NC(=O)c2ccc(Cl)s2)CSC/C=C/CSCCNC(=O)C[C@H]2CCCN2C(=O)[C@@H]1Cc1ccccc1 [C1-X32-L4] | 95.6 | 100.2
15 | O=C1C[C@H]2CCCN2C(=O)[C@H](Cc2ccc(Cl)cc2)NC(=O)[C@@H](NC(=O)c2ccc(Cl)s2)CCCSCc2cccc(c2)CSCCN1 [C3-X34-L5] | 103.1 | 94.9
16 | O=C1C[C@H]2CCCN2C(=O)[C@H](Cc2ccc(Cl)cc2)NC(=O)[C@@H](NC(=O)c2ccc(Cl)s2)CCSCc2cccc(n2)CSCCN1 [C2-X34-L1] | 87.1 | 93.9
17 | COc1ccc(C[C@@H]2NC(=O)[C@@H](NC(=O)c3ccc(Cl)s3)CSCc3ccc(cc3)CSCCNC(=O)C[C@H]3CCCN3C2=O)cc1 [C1-X33-L3] | 96.4 | 98.9
18 | Cc1cccc(C[C@@H]2NC(=O)[C@@H](NC(=O)c3ccc(Cl)s3)CCCSCC(=O)CSCCNC(=O)C[C@H]3CCCN3C2=O)c1 [C3-X37-L7] | 84.8 | 58.3
19 | N#Cc1ccc(C[C@@H]2NC(=O)[C@@H](NC(=O)c3ccc(Cl)s3)CCSCc3ccc(cc3)CSCCNC(=O)C[C@H]3CCCN3C2=O)cc1 [C2-X35-L3] | 101.8 | 100.4
20 | O=C1C[C@H]2CCCN2C(=O)[C@H](Cc2ccc(Cl)cc2)NC(=O)[C@@H](NC(=O)c2ccc(Cl)s2)CSC/C=C/CSCCN1 [C1-X34-L4] | 98.7 | 91.7
21 | CN1C(=O)[C@@H](NC(=O)c2ccc(Cl)s2)CCSCc2cccc(n2)CSCCNC(=O)C[C@H]2CCCN2C(=O)[C@@H]1Cc1ccccc1 [C2-X32-L1] | 92.7 | 101.7

Row | Compound | Residual thrombin activity: Top sample | Residual thrombin activity: Equilibrated sample
22 | Cc1cccc(C[C@@H]2NC(=O)[C@@H](NC(=O)c3ccc(Cl)s3)CCSCC(=O)CSCCNC(=O)C[C@H]3CCCN3C2=O)c1 [C2-X37-L7] | 99.9 | 83.6
23 | Cc1cccc(C[C@@H]2NC(=O)[C@@H](NC(=O)c3ccc(Cl)s3)CCCSC/C=C/CSCCNC(=O)C[C@H]3CCCN3C2=O)c1 [C3-X37-L4] | 84.2 | 63.6
24 | O=C1CSCCC[C@H](NC(=O)c2ccc(Cl)s2)C(=O)N[C@@H](Cc2ccc(Cl)cc2)C(=O)N2CCC[C@@H]2CC(=O)NCCSC1 [C3-X34-L7] | 103.7 | 93.3
25 | O=C1C[C@H]2CCCN2C(=O)[C@H](Cc2ccc(C(F)(F)F)cc2)NC(=O)[C@@H](NC(=O)c2ccc(Cl)s2)CCCSCc2cccc(n2)CSCCN1 [C3-X36-L1] | 102.2 | 98.3
26 | O=C1C[C@H]2CCCN2C(=O)[C@H](Cc2ccc(C(F)(F)F)cc2)NC(=O)[C@@H](NC(=O)c2ccc(Cl)s2)CCSCc2ccccc2CSCCN1 [C2-X36-L6] | 96.8 | 97.9
27 | O=C1C[C@H]2CCCN2C(=O)[C@H](Cc2ccc(C(F)(F)F)cc2)NC(=O)[C@@H](NC(=O)c2ccc(Cl)s2)CCCSCCS(=O)(=O)CCSCCN1 [C3-X36-L2] | 105.4 | 99.8
28 | O=C1C[C@H]2CCCN2C(=O)[C@H](Cc2ccc(Cl)cc2)NC(=O)[C@@H](NC(=O)c2ccc(Cl)s2)CSCc2cccc(c2)CSCCN1 [C1-X34-L5] | 97.0 | 98.5
29 | O=C1C[C@H]2CCCN2C(=O)[C@@H](Cc2ccccc2)NC(=O)[C@@H](NC(=O)c2ccc(Cl)s2)CSCc2ccc(cc2)CSCCN1 [C1-X31-L3] | 95.4 | 95.0
30 | N#Cc1ccc(C[C@@H]2NC(=O)[C@@H](NC(=O)c3ccc(Cl)s3)CCSCc3cccc(c3)CSCCNC(=O)C[C@H]3CCCN3C2=O)cc1 [C2-X35-L5] | 106.2 | 101.3
31 | O=C1C[C@H]2CCCN2C(=O)[C@H](Cc2ccc(Cl)cc2)NC(=O)[C@@H](NC(=O)c2ccc(Cl)s2)CCSCc2ccc(cc2)CSCCN1 [C2-X34-L3] | 99.4 | 99.1
32 | O=C1C[C@H]2CCCN2C(=O)[C@H](Cc2ccccc2)NC(=O)[C@@H](NC(=O)c2ccc(Cl)s2)CSC/C=C/CSCCN1 [C1-X5-L4] | 53.7 | 31.7
33 | O=C1C[C@H]2CCCN2C(=O)[C@@H](Cc2ccccc2)NC(=O)[C@@H](NC(=O)c2ccc(Cl)s2)CCCSCc2ccccc2CSCCN1 [C3-X31-L6] | 97.6 | 87.4
34 | COc1ccc(C[C@@H]2NC(=O)[C@@H](NC(=O)c3ccc(Cl)s3)CCCSCC(=O)CSCCNC(=O)C[C@H]3CCCN3C2=O)cc1 [C3-X33-L7] | 103.1 | 99.9
35 | Cc1cccc(C[C@@H]2NC(=O)[C@@H](NC(=O)c3ccc(Cl)s3)CCSCc3cccc(c3)CSCCNC(=O)C[C@H]3CCCN3C2=O)c1 [C2-X37-L5] | 104.6 | 95.0
36 | N#Cc1ccc(C[C@@H]2NC(=O)[C@@H](NC(=O)c3ccc(Cl)s3)CCCSC/C=C/CSCCNC(=O)C[C@H]3CCCN3C2=O)cc1 [C3-X35-L4] | 103.2 | 97.2
37 | O=C1CSCCNC(=O)C[C@H]2CCCN2C(=O)[C@H](Cc2ccc(C(F)(F)F)cc2)NC(=O)[C@@H](NC(=O)c2ccc(Cl)s2)CSC1 [C1-X36-L7] | 100.3 | 99.5
38 | O=C1C[C@H]2CCCN2C(=O)[C@@H](Cc2ccccc2)NC(=O)[C@@H](NC(=O)c2ccc(Cl)s2)CCCSCCS(=O)(=O)CCSCCN1 [C3-X31-L2] | 103.5 | 93.7
39 | Cc1cccc(C[C@@H]2NC(=O)[C@@H](NC(=O)c3ccc(Cl)s3)CCCSCc3ccccc3CSCCNC(=O)C[C@H]3CCCN3C2=O)c1 [C3-X37-L6] | 92.8 | 79.2
40 | O=C1C[C@H]2CCCN2C(=O)[C@H](Cc2ccc(C(F)(F)F)cc2)NC(=O)[C@@H](NC(=O)c2ccc(Cl)s2)CCSCc2cccc(n2)CSCCN1 [C2-X36-L1] | 95.5 | 97.7
41 | COc1ccc(C[C@@H]2NC(=O)[C@@H](NC(=O)c3ccc(Cl)s3)CCCSCc3cccc(c3)CSCCNC(=O)C[C@H]3CCCN3C2=O)cc1 [C3-X33-L5] | 101.3 | 103.0
